Measurements: the supplement of paper PMC7840683
Structures can show the parent of a compound that is named as a salt. ± gives the standard deviation of the averaged measurements.

Tested on: HepaRG
Assay: LDH release cytotoxicity, % of total lysis control; higher = more cytotoxic
Conditions: 48 h
How it was run: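 Single-lot HepaRG cells on collagen I-coated 96-well plates were exposed for 48 h in duplicate, in serum-free induction medium with 0.5% DMSO, to eight-point half-log series (test chemicals top 100 µM). Total lysis wells received 0.1% Triton X, and LDH leakage into 50 µL spent medium was read as resorufin fluorescence (CytoTox-ONE, Tecan Safire). Percent cytotoxicity was normalized to on-plate vehicle and total lysis controls and averaged over the duplicates.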

SMILES | LDH release cytotoxicity (0.03162 µM) | LDH release cytotoxicity (0.1 µM) | LDH release cytotoxicity (0.3162278 µM) | LDH release cytotoxicity (1 µM) | LDH release cytotoxicity (3.16228 µM) | LDH release cytotoxicity (10 µM) | LDH release cytotoxicity (31.6228 µM) | LDH release cytotoxicity (100 µM) | further results
CN(C)CCOC(c1ccccc1)c1ccccc1 [Diphenhydramine hydrochloride] | -0.0757 ± 0.11% | -1.04 ± 0.17% | -0.977 ± 0.34% | -1.8 ± 1.1% | -1.62 ± 0.031% | -0.793 ± 0.26% | -0.772 ± 0.23% | 1.1 ± 0.12% | –
O=C(Oc1ccccc1)c1cccc(C(=O)Oc2ccccc2)c1 [Diphenyl isophthalate] | -0.961 ± 0.23% | -0.451 ± 0.024% | -0.0836 ± 0.51% | -0.13 ± 0.26% | -0.548 ± 1.1% | -0.00904 ± 1.2% | 0.842 ± 0.83% | 2.16 ± 1.3% | –
c1ccc(Nc2ccccc2)cc1 [Diphenylamine] | -0.79 ± 0.82% | -0.775 ± 0.35% | -0.986 ± 0.56% | -1.44 ± 0.19% | -1.13 ± 0.35% | -1 ± 0.56% | 0.0424 ± 0.62% | 3.57 ± 0.064% | –
CCCOC(=O)c1ccc(C(=O)OCCC)nc1 [Dipropyl 2,5-pyridinedicarboxylate] | – | – | – | – | – | – | – | – | LDH release cytotoxicity (0.03305 µM): -4.74 ± 0.19%; LDH release cytotoxicity (0.1045 µM): -5.46 ± 0.7%; LDH release cytotoxicity (0.330458 µM): -5.78 ± 1.4%; LDH release cytotoxicity (1.045 µM): -4.98 ± 2.6%; LDH release cytotoxicity (3.30458 µM): -5.75 ± 0.92%; LDH release cytotoxicity (10.45 µM): -5.51 ± 1.6%; LDH release cytotoxicity (33.0458 µM): -4.96 ± 1.7%; LDH release cytotoxicity (104.5 µM): -4.42 ± 1.1%
COCC(C)OCC(C)O (stereo not drawn) [Dipropylene glycol monomethyl ether] | -1.67 ± 0.049% | -1.92 ± 0.76% | -1.46 ± 0.17% | -1.8 ± 0.051% | -1.39 ± 0.54% | -0.852 ± 0.24% | 0.852 ± 0.72% | 0.163 ± 0.47% | –
CC(CO)OC(C)CO.CC(O)COCC(C)O (stereo not drawn) [Dipropylene glycol] | -0.933 ± 0.81% | -1.33 ± 0.44% | -1.72 ± 1.1% | -2.46 ± 0.3% | -1.81 ± 0.92% | -1.07 ± 0.57% | -0.766 ± 1.3% | 1.27 ± 1.3% | –
c1cc[n+]2c(c1)-c1cccc[n+]1CC2 [Diquat dibromide monohydrate] | -1.01 ± 0.048% | 0.359 ± 1.1% | 0.818 ± 0.33% | 0.472 ± 0.19% | 0.215 ± 0.51% | 1.64 ± 0.66% | -0.425 ± 0.39% | 2.13 ± 0.58% | –
CCOP(=S)(OCC)SCCSCC [Disulfoton] | -1.14 ± 0.34% | -1.12 ± 0.75% | -1.03 ± 0.2% | -1.51 ± 0.2% | -1.34 ± 0.37% | -1.32 ± 0.63% | -1.01 ± 0.54% | -0.345 ± 0.13% | –
CSC(=O)c1c(C(F)F)nc(C(F)(F)F)c(C(=O)SC)c1CC(C)C [Dithiopyr] | – | – | – | – | – | – | – | – | LDH release cytotoxicity (0.0140721 µM): -1.51 ± 2.5%; LDH release cytotoxicity (0.0445 µM): -2.25 ± 0.63%; LDH release cytotoxicity (0.1407214 µM): -2.63 ± 0.43%; LDH release cytotoxicity (0.445 µM): -3.81 ± 0.56%; LDH release cytotoxicity (1.4072136 µM): -3.84 ± 0.3%; LDH release cytotoxicity (4.45 µM): -5.82 ± 2.5%; LDH release cytotoxicity (14.072136 µM): -1.76 ± 2.3%; LDH release cytotoxicity (44.5 µM): -1.31 ± 1.6%
CN(C)C(=O)Nc1ccc(Cl)c(Cl)c1 [Diuron] | – | – | – | – | – | – | – | – | LDH release cytotoxicity (0.0314647 µM): -0.32 ± 1.2%; LDH release cytotoxicity (0.0995 µM): -1.23 ± 1.5%; LDH release cytotoxicity (0.3146466 µM): -1.57 ± 0.64%; LDH release cytotoxicity (0.995 µM): -0.727 ± 0.72%; LDH release cytotoxicity (3.14647 µM): -1.47 ± 0.9%; LDH release cytotoxicity (9.95 µM): -1.77 ± 0.071%; LDH release cytotoxicity (31.4647 µM): -0.974 ± 0.13%; LDH release cytotoxicity (99.5 µM): 19 ± 4.1%
CCCCC(CC)COC(=O)CC(C(=O)OCC(CC)CCCC)S(=O)(=O)O (stereo not drawn) [Docusate sodium] | -1.66 ± 0.36% | -0.373 ± 0.42% | -0.361 ± 0.69% | -0.887 ± 0.12% | -0.195 ± 0.3% | -1.39 ± 0.72% | 1.52 ± 0.59% | 75.5 ± 1.1% | –
CCCCCCCCCCCCc1cccc(S(=O)(=O)O)c1 [Dodecylbenzene sulfonate triethanolamine(1:1)] | – | – | – | – | – | – | – | – | LDH release cytotoxicity (0.02846 µM): -1.49 ± 0.8%; LDH release cytotoxicity (0.09 µM): -0.848 ± 1.3%; LDH release cytotoxicity (0.284605 µM): -1.53 ± 0.58%; LDH release cytotoxicity (0.9 µM): -1.22 ± 0.78%; LDH release cytotoxicity (2.84605 µM): -0.852 ± 0.19%; LDH release cytotoxicity (9 µM): -1.11 ± 0.016%; LDH release cytotoxicity (28.4605 µM): -0.984 ± 0.56%; LDH release cytotoxicity (90 µM): 5.69 ± 0.45%
CCCCCCCCCCCCc1ccccc1 [Dodecylbenzene] | -2.1 ± 0.14% | -1.71 ± 0.15% | -1.86 ± 0.75% | -2.59 ± 0.8% | -2.08 ± 0.19% | -0.672 ± 0.39% | -1.17 ± 0.31% | 1.25 ± 1.2% | –
CCCCCCCCCCCCc1ccc(S(=O)(=O)O)cc1 [Dodecylbenzenesulfonic acid] | – | -1.4 ± 1.3% | – | -3.27 ± 1.6% | -2.52 ± 0.99% | -2.56 ± 0.4% | -1.64 ± 0.34% | 65.65 ± 0.34% | LDH release cytotoxicity (0.031623 µM): -1.05 ± 0.58%; LDH release cytotoxicity (0.316228 µM): -2.17 ± 0.79%
CCCCCCCCCCCC[N+](C)(C)C [Dodecyltrimethylammonium chloride] | -1.4 ± 0.15% | -0.753 ± 0.6% | -1.39 ± 0.13% | -1.32 ± 0.19% | -1.23 ± 0.47% | -0.28 ± 0.2% | 0.602 ± 0.64% | 78 ± 0.7% | –
CCOP(=S)(Oc1ccc([N+](=O)[O-])cc1)c1ccccc1 (stereo not drawn) [EPN] | -0.935 ± 0.29% | -1.31 ± 0.65% | -1.61 ± 1% | -1.96 ± 0.085% | -1.14 ± 0.37% | -0.361 ± 0.0065% | 0.629 ± 0.14% | 5.51 ± 0.88% | –
CCCN(CCC)C(=O)SCC [EPTC] | 0.307 ± 0.45% | -0.433 ± 0.099% | -0.271 ± 0.12% | -0.35 ± 0.45% | -0.208 ± 0.25% | 0.499 ± 0.14% | 0.312 ± 0.64% | 0.622 ± 0.63% | –
CN1CCN(c2ccccc2C=C2SCCN(c3ccc(Cl)c(Cl)c3)C2=O)CC1 [Elzasonan] | 0.236 ± 2.3% | 0.483 ± 1.1% | 0.649 ± 0.75% | -0.238 ± 0.039% | -0.446 ± 0.23% | 0.355 ± 0.19% | 9.77 ± 0.73% | 88.8 ± 3.5% | –
CC[C@H](C)C1O[C@]2(C=C[C@@H]1C)C[C@@H]1C[C@@H](C/C=C(\C)[C@@H](O[C@H]3C[C@H](OC)[C@@H](O[C@H]4C[C@H](OC)[C@H](NC)[C@H](C)O4)[C@H](C)O3)[C@@H](C)/C=C/C=C3\CO[C@@H]4[C@H](O)C(C)=C[C@@H](C(=O)O1)[C@]34O)O2 (stereo partly drawn) [Emamectin benzoate] | – | -1.09 ± 0.55% | – | -3.84 ± 0.41% | -2.51 ± 1.1% | 5.16 ± 1.4% | 83.4 ± 1.7% | 87 ± 4.4% | LDH release cytotoxicity (0.031623 µM): -1.83 ± 1%; LDH release cytotoxicity (0.316228 µM): -2.57 ± 0.26%
O=S1OCC2C(CO1)C1(Cl)C(Cl)=C(Cl)C2(Cl)C1(Cl)Cl (stereo not drawn) [Endosulfan] | 0.0956 ± 0.07% | -0.361 ± 0.27% | -0.482 ± 0.4% | -0.273 ± 0.024% | -0.151 ± 0.84% | 0.616 ± 0.33% | -0.612 ± 0.076% | 14.5 ± 0.024% | –
O=C(O)C1C2CCC(O2)C1C(=O)O (stereo not drawn) [Endothal] | -1.48 ± 0.36% | -1.31 ± 0.46% | -0.8 ± 1.6% | -0.517 ± 0.22% | -1.16 ± 0.45% | -1 ± 0.32% | 1.01 ± 0.73% | 21.8 ± 0.24% | –
ClC1=C(Cl)C2(Cl)C3C4CC(C5OC45)C3C1(Cl)C2(Cl)Cl (stereo not drawn) [Endrin] | -0.958 ± 0.053% | -0.149 ± 0.18% | -0.591 ± 0.61% | -0.635 ± 0.031% | -0.591 ± 0.57% | -0.724 ± 0.2% | 0.152 ± 0.33% | 6.26 ± 0.25% | –
CCC1OC(=O)C(C)C(OC2CC(C)(OC)C(O)C(C)O2)C(C)C(OC2OC(C)CC(N(C)C)C2O)C(C)(O)CC(C)C(=O)C(C)C(O)C1(C)O (stereo not drawn) [Erythromycin] | – | – | – | – | – | – | – | – | LDH release cytotoxicity (0.02356 µM): -1.71 ± 1.6%; LDH release cytotoxicity (0.0745 µM): -2.96 ± 1%; LDH release cytotoxicity (0.23559 µM): -1.94 ± 1%; LDH release cytotoxicity (0.745 µM): -3.63 ± 0.23%; LDH release cytotoxicity (2.3559 µM): -3.02 ± 1.1%; LDH release cytotoxicity (7.45 µM): -2.85 ± 0.59%; LDH release cytotoxicity (23.559 µM): -1.9 ± 0.73%; LDH release cytotoxicity (74.5 µM): -0.102 ± 1.1%
CC(C)C(C(=O)OC(C#N)c1cccc(Oc2ccccc2)c1)c1ccc(Cl)cc1 (stereo not drawn) [Esfenvalerate] | -0.0612 ± 0.44% | -1.61 ± 0.76% | -0.46 ± 0.66% | -0.419 ± 0.79% | -1.05 ± 0.74% | 0.166 ± 0.61% | -0.322 ± 0.82% | -0.488 ± 0.23% | –
CC12CCC3c4ccc(O)cc4CCC3C1CCC2=O (stereo not drawn) [Estrone] | -1.21 ± 0.2% | -1.61 ± 0.43% | -1.15 ± 0.68% | -2.36 ± 0.6% | -2.37 ± 0.056% | -2.52 ± 0.45% | -1.9 ± 0.29% | 0.127 ± 1.1% | –
NCCO [Ethanolamine] | -2.14 ± 1.3% | -2 ± 1.6% | -1.29 ± 0.49% | -1.55 ± 0.046% | -0.642 ± 0.088% | -0.777 ± 0.073% | -0.101 ± 0.76% | 0.0783 ± 0.76% | –
